From patent US20230295118A1 (EnhancedBio Inc., priority 2022, published 2023)
Read-outs that look alike come from different tables or passages of the source.

Legend:
Type in all cases: cell-based
[1] = system: mantle cell lymphoma cell (Mino or JeKo-1); assay: Antiproliferative effect, MTS cell viability assay
Summary of the method: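 MTS read-out (formazan absorbance at 490 nm) after 72 h exposure of Mino cells to 0–1 μM compound (0.0001, 0.001, 0.01, 0.1, 1 μM). Palbociclib and abemaciclib served as positive controls.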

CDK4 = target: T1, CDK4 (Homo sapiens, UniProt P11802); assay: CDK4 degradation (DC50, Dmax)
T1 construct: endogenous in cells
T1 sequence (P11802 whole entry): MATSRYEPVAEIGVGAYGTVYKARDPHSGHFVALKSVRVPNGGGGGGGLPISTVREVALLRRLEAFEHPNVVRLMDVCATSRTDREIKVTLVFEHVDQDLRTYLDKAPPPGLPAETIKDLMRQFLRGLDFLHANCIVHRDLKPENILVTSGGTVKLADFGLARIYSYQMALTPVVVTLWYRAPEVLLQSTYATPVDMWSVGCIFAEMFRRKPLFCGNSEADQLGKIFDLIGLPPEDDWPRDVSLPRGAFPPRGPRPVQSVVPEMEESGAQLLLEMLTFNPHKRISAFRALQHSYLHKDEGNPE

CDK6 = target: T2, CDK6 (Homo sapiens, UniProt Q00534); assay: CDK6 degradation (DC50, Dmax)
T2 construct: endogenous in cells
T2 sequence (Q00534 whole entry): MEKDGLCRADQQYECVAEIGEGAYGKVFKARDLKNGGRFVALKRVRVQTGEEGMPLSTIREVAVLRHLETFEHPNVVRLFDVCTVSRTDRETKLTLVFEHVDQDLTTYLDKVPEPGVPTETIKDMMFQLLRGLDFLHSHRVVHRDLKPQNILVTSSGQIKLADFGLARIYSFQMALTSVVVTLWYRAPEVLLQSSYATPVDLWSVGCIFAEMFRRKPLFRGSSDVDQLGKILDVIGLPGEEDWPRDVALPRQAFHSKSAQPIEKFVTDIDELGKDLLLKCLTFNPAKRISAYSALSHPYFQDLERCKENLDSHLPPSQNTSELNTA

[2] = 72 h, mantle cell lymphoma cell (Mino or JeKo-1), MTS assay, read-out: IC50 (anti-proliferation)

| Structure (SMILES) | IC50 [1, 2] [µM] | DC50 (CDK4) [µM] | Dmax (CDK4) [%] | DC50 (CDK6) [µM] | Dmax (CDK6) [%] | IC50 ([1]; mantle cell lymphoma cell (Mino or JeKo-1); MTS assay, 72 h; read-out: IC50 (anti-proliferation)) [µM] | Dmax CDK4 (CDK4) | Dmax CDK6 (CDK6) |
| --- | --- | --- | --- | --- | --- | --- | --- | --- |
| Cc1nc2c(F)cc(-c3nc(Nc4ccc(CN5CCN(C6CCN(c7ccc(C(=O)NC8CCC(=O)NC8=O)cc7)CC6)CC5)cn4)ncc3F)cc2n1C(C)C (stereo not drawn) [Compound 167, N-(2,6-dioxopiperidin-3-yl)-4-(4-(4-((6-((5-fluoro-4-(4-fluoro-1-isopropyl-2-methyl-1H-benzo[d]imidazol-6-yl)pyrimidin-2-yl)amino)pyridin-3-yl)methyl)piperazin-1-yl)piperidin-1-yl)benzamide] | – | 0.05 to 0.2 | – | 0.05 to 0.2 | – | 0.05 to 0.2 | B (B: >60%) | B (B: >60%) |
| Cc1nc2c(F)cc(-c3nc(Nc4ccc(CN5CCN(C6CCN(c7ccc(NC8CCC(=O)NC8=O)cc7)CC6)CC5)cn4)ncc3F)cc2n1C(C)C (stereo not drawn) [Compound 168, 3-((4-(4-(4-((6-((5-fluoro-4-(4-fluoro-1-isopropyl-2-methyl-1H-benzo[d]imidazol-6-yl)pyrimidin-2-yl)amino)pyridin-3-yl)methyl)piperazin-1-yl)piperidin-1-yl)phenyl)amino) piperidine-2,6-dione] | < 0.05 | 0.05 to 0.2 | > 80 | < 0.05 | > 80 | – | – | – |
| Cc1nc2c(F)cc(-c3nc(Nc4ccc(CC5CCN(C6CCN(c7ccc8c(c7)C(=O)N(C7CCC(=O)NC7=O)C8=O)CC6)CC5)cn4)ncc3F)cc2n1C(C)C (stereo not drawn) [Compound 169, 2-(2,6-dioxopiperidin-3-yl)-5-(4-((6-((5-fluoro-4-(4-fluoro-1-isopropyl-2-methyl-1H-benzo[d]imidazol-6-yl)pyrimidin-2-yl)amino)pyridin-3-yl)methyl)-[1,4′-bipiperidin]-1′-yl)isoindoline-1,3-dione] | < 0.05 | 0.05 to 0.2 | > 80 | 0.05 to 0.2 | > 80 | – | – | – |

Continued, values first:

| IC50 [1, 2] [µM] | DC50 (CDK4) [µM] | Dmax (CDK4) [%] | DC50 (CDK6) [µM] | Dmax (CDK6) [%] | IC50 ([1]; mantle cell lymphoma cell (Mino or JeKo-1); MTS assay, 72 h; read-out: IC50 (anti-proliferation)) [µM] | Dmax CDK4 (CDK4) | Dmax CDK6 (CDK6) | Structure (SMILES) |
| --- | --- | --- | --- | --- | --- | --- | --- | --- |
| 0.05 to 0.2 | 0.05 to 0.2 | > 60 | 0.05 to 0.2 | > 80 | – | – | – | Cc1nc2c(F)cc(-c3nc(Nc4ccc(CC5CCN(C(=O)C6CCN(c7ccc(NC8CCC(=O)NC8=O)cc7)CC6)CC5)cn4)ncc3F)cc2n1C(C)C (stereo not drawn) [Compound 164, 3-((4-(4-(4-((6-((5-fluoro-4-(4-fluoro-1-isopropyl-2-methyl-1H-benzo[d]imidazol-6-yl)pyrimidin-2-yl)amino)pyridin-3-yl)methyl)piperidine-1-carbonyl)piperidin-1-yl)phenyl)amino) piperidine-2,6-dione] |
| < 0.05 | 0.05 to 0.2 | > 80 | 0.05 to 0.2 | > 80 | – | – | – | Cc1nc2c(F)cc(-c3nc(Nc4ccc(CN5CCN(C6CCN(c7ccc8c(c7)C(=O)N(C7CCC(=O)NC7=O)C8=O)CC6)CC5)cn4)ncc3F)cc2n1C(C)C (stereo not drawn) [Compound 165, 2-(2,6-dioxopiperidin-3-yl)-5-(4-(4-((6-((5-fluoro-4-(4-fluoro-1-isopropyl-2-methyl-1H-benzo[d]imidazol-6-yl)pyrimidin-2-yl)amino)pyridin-3-yl)methyl)piperazin-1-yl)piperidin-1-yl)isoindoline-1,3-dione] |
| < 0.05 | 0.05 to 0.2 | > 80 | 0.05 to 0.2 | > 60 | – | – | – | Cc1nc2c(F)cc(-c3nc(Nc4ccc(CN5CCN(C6CCN(c7ccc8c(c7)CN(C7CCC(=O)NC7=O)C8=O)CC6)CC5)cn4)ncc3F)cc2n1C(C)C (stereo not drawn) [Compound 166, 3-(5-(4-(4-((6-((5-fluoro-4-(4-fluoro-1-isopropyl-2-methyl-1H-benzo[d]imidazol-6-yl)pyrimidin-2-yl)amino)pyridin-3-yl)methyl)piperazin-1-yl)piperidin-1-yl)-1-oxoisoindolin-2-yl)piperidine-2,6-dione] |
